Assay results from US20260285853A1, “COMPOUNDS AND METHODS FOR MODULATING SPLICING” (REMIX THERAPEUTICS INC., priority 2023, published 2026).
Read-outs that look alike come from different tables or passages of the source.

Experiments:
Format in all cases: cell-based
[1] = tested on: MYB mRNA; assay: Splicing RT-qPCR assay (THP), Table 2A
[2] = tested on: HTT mRNA; assay: Splicing RT-qPCR assay (THP), Table 2A
[3] = tested on: MYB mRNA; assay: Gene panel canonical junction qPCR assay, decrease in CJ mRNA, Table 3
How it was run: (§1)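 A673 (DMEM, 10% FBS, 15,000 cells/well) or K562 (IMDM, 10% FBS) cells treated 24 h at 37 °C with 11-point 3-fold dilutions, top 10 uM, DMSO ≤0.25%. Canonical exon-exon junction mRNA measured by RT-qPCR, normalized to GAPDH, GUSB or PPIA and DMSO (ΔΔCt); IC50 from 4-parameter logistic fit.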

[4] = tested on: HTT mRNA; assay: as above
How it was run: as §1

[5] = tested on: SH-SY5Y (human neuroblastoma) cells; assay: Cell viability, Cell Titer Glo 2.0 assay; details: read-out: Viability SHSY5Y.3 GI50
How it was run: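 Toxicity screen in SH-SY5Y cells. Compounds were serially diluted in DMSO and then in medium, giving 0.1% DMSO final. Viability was read with CellTiter-Glo 2.0 after 72 h at 37 °C, 5% CO2, against medium-only blank wells.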

[6] = Table 2A (THP), AJ mRNA increase, read-out: MYB AJ (increase in alternative junction mRNA, AC50)
[7] = Table 2A (THP), CJ mRNA decrease, read-out: MYB CJ (decrease in canonical junction mRNA, IC50)
[8] = Table 2A (THP), AJ mRNA increase, read-out: HTT AJ (increase in alternative junction mRNA, AC50)
[9] = Table 2A (THP), CJ mRNA decrease, read-out: HTT CJ (decrease in canonical junction mRNA, IC50)
[10] = decrease in canonical junction (CJ) mRNA, gene panel qPCR, Table 3
[11] = Table 2A, THP, MYB alternative junction (AJ) mRNA, read-out: MYB AJ (AC50, increase in alternative junction mRNA)
[12] = Table 2A, THP, MYB canonical junction (CJ) mRNA, read-out: MYB CJ (IC50, decrease in canonical junction mRNA)
[13] = Table 2A, THP, HTT alternative junction (AJ) mRNA, read-out: HTT AJ (AC50, increase in alternative junction mRNA)
[14] = Table 2A, THP, HTT canonical junction (CJ) mRNA, read-out: HTT CJ (IC50, decrease in canonical junction mRNA)
[15] = decrease in CJ mRNA levels, canonical junction qPCR, gene panel

| SMILES | AC50 [1, 6] [µM] | IC50 [1, 7] [µM] | AC50 [2, 8] [µM] | IC50 [2, 9] [µM] | IC50 [3, 10] [µM] | IC50 [4, 10] [µM] | GI50 [5] [µM] | AC50 [1, 11] [µM] | IC50 [1, 12] [µM] | AC50 [2, 13] [µM] | IC50 [2, 14] [µM] | IC50 [3, 15] [µM] | IC50 [4, 15] [µM] |
| --- | --- | --- | --- | --- | --- | --- | --- | --- | --- | --- | --- | --- | --- |
| CCNC1CC2(C1)CN(c1ccc(C(=O)Nc3cc4cn(C)nc4cc3OC)c3nn(C)cc13)C2 [Compound 578] | 0.1 to 1 | 0.1 to 1 | 0.1 to 1 | 0.1 to 1 | 0.1 to 1 | 0.1 to 1 | 0.1 to 1 | – | – | – | – | – | – |
| COc1cc2nn(C)cc2cc1NC(=O)c1ccc(N2CCC3NCCC3C2)c2cn(C)nc12 (centres unmarked) [Compound 543] | 0.1 to 1 | 0.1 to 1 | 1 to 10 | 1 to 10 | 0.1 to 1 | 1 to 10 | 1 to 10 | – | – | – | – | – | – |
| COc1c(NC(=O)c2c(F)cc(N3CCC(NC45CC(C4)C5)CC3)c3cn(C)nc23)cn2cc(C)nc2c1F [Compound 389, 4-[4-(1-bicyclo[1.1.1]pentanylamino)-1-piperidyl]-6-fluoro-N-(8-fluoro-7-methoxy-2-methylimidazo-[1,2-a]pyridin-6-yl)-2-methyl-indazole-7-carboxamide] | < 0.1 | < 0.1 | 0.1 to 1 | 0.1 to 1 | < 0.1 | 0.1 to 1 | < 0.1 | – | – | – | – | – | – |
| CCNC1CCN(c2ccc(C(=O)Nc3cc4cn(C)nc4cc3OC)c3nc(C)cn23)CC1 [Compound 628, 5-[4-(ethylamino)-1-piperidyl]-N-(6-methoxy-2-methyl-indazol-5-yl)-2-methyl-imidazo[1,2-a]pyridine-8-carboxamide] | – | – | – | – | – | – | 0.1 to 1 | < 0.1 | < 0.1 | 0.1 to 1 | 0.1 to 1 | < 0.1 | 0.1 to 1 |
| COc1cc2nc(C)cn2cc1NC(=O)c1cnc(N2CCC(NC3CC3)CC2)c2cn(C)nc12 [Compound 440, 4-[4-(cyclopropylamino)-1-piperidyl]-N-(7-methoxy-2-methyl-imidazo[1,2-a]-pyridin-6-yl)-2-methyl-pyrazolo[4,3-c]-pyridine-7-carboxamide] | < 0.1 | 0.1 to 1 | 1 to 10 | 1 to 10 | 0.1 to 1 | 1 to 10 | 0.1 to 1 | – | – | – | – | – | – |
| Cc1cn2cc(NC(=O)c3ccc(N4CCC(NC5CC5)CC4)n4nc(C)nc34)nc2c(C)n1 [Compound 641, 5-[4-(cyclopropylamino)-1-piperidyl]-N-(6,8-dimethylimidazo-[1,2-a]pyrazin-2-yl)-2-methyl-[1,2,4]-triazolo[1,5-a]pyridine-8-carboxamide] | – | – | – | – | – | – | 0.1 to 1 | 0.1 to 1 | 0.1 to 1 | 0.1 to 1 | 0.1 to 1 | 0.1 to 1 | 0.1 to 1 |
| Cc1cn2cc(NC(=O)c3ccc(OC4CCNC4)c4cn(C)nc34)nc2c(C)n1 (centres unmarked) [Compound 537] | > 10 | > 10 | > 10 | > 10 | > 10 | > 10 | > 10 | – | – | – | – | – | – |
| Cc1cn2cc(NC(=O)c3ccc(N4CCC(NC5CC5)CC4)c4cn(C)nc34)nc2c(CN)n1 [Compound 734, N-(8-(aminomethyl)-6-methylimidazo[1,2-a]pyrazin-2-yl)-4-(4-(cyclopropylamino)piperidin-1-yl)-2-methyl-2H-indazole-7-carboxamide bis(2,2,2-trifluoroacetate)] | – | – | – | – | – | – | > 10 | > 10 | > 10 | > 10 | > 10 | > 10 | > 10 |
| COc1cc2nn(C)cc2c(Cl)c1NC(=O)c1c(F)cc(N2CCC(NC3CC3)CC2)c2cn(C)nc12 [Compound 445, N-(4-chloro-6-methoxy-2-methyl-indazol-5-yl)-4-[4-(cyclopropylamino)-1-piperidyl]-6-fluoro-2-methyl-indazole-7-carboxamide 2,2,2-trifluoroacetate] | > 10 | > 10 | > 10 | > 10 | > 10 | > 10 | > 10 | – | – | – | – | – | – |
| Cc1cn2cc(NC(=O)c3ccc(N4CCC(NC5CC5)CC4)c4cn(C)nc34)nc2c(CNC(N)=O)n1 [Compound 829] | – | – | – | – | – | – | > 10 | > 10 | > 10 | > 10 | > 10 | > 10 | > 10 |
| CCNC1CCN(c2ccc(C(=O)Nc3cc4c(C)nc(C)cn4c3)c3nn(C)cc23)CC1 [Compound 345, N-(1,3-dimethylpyrrolo[1,2-a]pyrazin-7-yl)-4-[4-(ethylamino)-1-piperidyl]-2-methyl-indazole-7-carboxamide] | > 10 | 1 to 10 | > 10 | > 10 | 1 to 10 | > 10 | 1 to 10 | – | – | – | – | – | – |
| COc1nc2c(C(=O)Nc3cc(F)c4nn(C)cc4c3)ccc(N3CC[C@@H](NC(C)(C)C)C3)c2s1 [Compound 769] | – | – | – | – | – | – | 0.1 to 1 | < 0.1 | < 0.1 | 0.1 to 1 | 0.1 to 1 | < 0.1 | 0.1 to 1 |
| COc1cc2c(N3CCC(NC4CC4)CC3)ccc(C(=O)Nc3cc(CNS(C)(=O)=O)c4nc(C)cn4c3)n2n1 [Compound 838] | – | – | – | – | – | – | 1 to 10 | 1 to 10 | 1 to 10 | > 10 | > 10 | 1 to 10 | > 10 |
| COc1cc2c(N3CCC(NC4CC4)CC3)ccc(C(=O)Nc3cc(C)c4nc(C)cn4n3)n2n1 [Compound 695, 4-[4-(cyclopropylamino)-1-piperidyl]-N-(2,8-dimethylimidazo[1,2-b]pyridazin-6-yl)-2-methoxy-pyrazolo[1,5-a]pyridine-7-carboxamide] | – | – | – | – | – | – | 1 to 10 | 1 to 10 | 1 to 10 | 1 to 10 | 1 to 10 | 1 to 10 | 1 to 10 |
| CCNC1CCN(c2ccc(C(=O)Nc3cc(CC(N)=O)c4nc(C)cn4c3)c3nn(C)cc23)CC1 [Compound 340, N-[8-(2-amino-2-oxo-ethyl)-2-methyl-imidazo[1,2-a]pyridin-6-yl]-4-[4-(ethylamino)-1-piperidyl]-2-methyl-indazole-7-carboxamide] | > 10 | > 10 | > 10 | > 10 | > 10 | > 10 | > 10 | – | – | – | – | – | – |
| Cc1cn2cc(NC(=O)c3ccc(N4CCC(NC5CC5)CC4)c4cn(C)nc34)nc2c(CNC(C)C(F)(F)F)n1 (centres unmarked) [Compound 791, 4-[4-(cyclopropylamino)-1-piperidyl]-2-methyl-N-[6-methyl-8-[[(2,2,2-trifluoro-1-methyl-ethyl)amino]methyl]imidazo[1,2-a]pyrazin-2-yl]indazole-7-carboxamide] | – | – | – | – | – | – | 1 to 10 | > 10 | > 10 | > 10 | > 10 | > 10 | > 10 |
| COc1c(NC(=O)c2ccc(N3CCC(NC4CC4)CC3)c3cc(C)nn23)cn2cc(C)nc(C)c12 [Compound 630, 4-[4-(cyclopropylamino)-1-piperidyl]-N-(8-methoxy-1,3-dimethyl-pyrrolo[1,2-a]pyrazin-7-yl)-2-methyl-pyrazolo[1,5-a]pyridine-7-carboxamide] | – | – | – | – | – | – | 1 to 10 | 1 to 10 | 1 to 10 | 1 to 10 | 1 to 10 | 1 to 10 | 1 to 10 |
